Data taken from patent US20240182948A1, “METHODS AND COMPOSITIONS FOR DETECTION OF TUMOR DNA” (The Broad Institute, Inc., priority 2021, published 2024).

Tested on: macrophages co-incubated with apoptotic KPLG cells
Test: Chloroquine treatment of macrophages after co-incubation with apoptotic KPLG cells; recovery of tumor DNA from cell fractions
Format: cell-based, murine
Protocol: FIG. 9A: Cytoplasmic DNA mass recovered from macrophages with or without 25 μM CQ treatment for 3 hours. FIG. 9B: Nuclear DNA mass recovered from macrophages with or without 25 μM CQ treatment for 3 hours. FIG. 9C: Cytoplasmic KRAS G12D to WT ratio. Apoptotic KPLG cells were washed away after 1 hour of co-incubation with macrophages before CQ treatment. FIG. 9D: Nuclear KRAS G12D to WT ratio. Apoptotic KPLG cells were washed away after 1 hour of co-incubation with macrophages before CQ treatment.
To test if pharmacologically blocking the DNA degradation pathway could lead to increased recovery of tumor DNA in macrophages, apoptotic KPLG cells were co-incubated with macrophage cells for 1 hour, after which apoptotic cells were washed away, and macrophages were treated either with or without 25 μM chloroquine.
Cell lines: KPLG cells were kindly provided by the Jacks Laboratory at the Massachusetts Institute of Technology (MIT). BMDM were harvested from femurs of wild-type […] mice and DNase 2a−/− mice. KPLG cells were cultured in DMEM supplemented with 10% fetal bovine serum (Gibco) and 1% penicillin/streptomycin (Corning); BMDM cells were cultured in DMEM supplemented with 10% fetal bovine serum (Gibco) and 1% penicillin/streptomycin (Corning), and 15% L929 conditioned medium. All cells were cultured in a humidified atmosphere of 95% air and 5% CO2 at 37° C. The KPLG cell line was declared pathogen free after being subjected to murine pathogen testing by the Diagnostic Laboratory of the Division of Comparative Medicine (MIT).
Cell fractionation and DNA extraction: Cells were collected by centrifugation at 3000×g for 7 min. The cells were lysed using four volumes of lysis buffer (20 mM Tris-HCl, pH 7.4, 10 mM KCl, 2 mM MgCl2, 1 mM DTT, and 1 mM EDTA) for 20 min. on ice. The nuclear pellet was collected by centrifugation twice at 800×g for 5 min. The mitochondrial fraction was collected by centrifugation twice at 10,000×g for 10 min. The collected supernatant was used as the cytoplasmic fraction. […]

## CCN(CC)CCCC(C)Nc1ccnc2cc(Cl)ccc12 (stereo not drawn) [Chloroquine, chloroquine]
25 μM CQ treatment for 3 hours, legend of FIGS. 9A-9D
  digestion of cytoplasmic tumor-derived DNA by macrophages: inhibits digestion
25 μM chloroquine vs. no treatment, apoptotic KPLG cells washed away after 1 hour of co-incubation, FIG. 9A: treatment for 3 hours
  total cytoplasmic DNA mass recovered from macrophages: increase
25 μM chloroquine vs. no treatment, apoptotic KPLG cells washed away after 1 hour of co-incubation, TaqMan qPCR
  presence of KRAS G12D in the cytoplasmic DNA fraction of macrophages (KRAS G12D to WT ratio): increase
